From patent publication US9861616B2, “Methods for treating respiratory diseases and formulations therefor” (priority 2013, dated 2018)

Key:
TNFα release = test: LPS-induced TNFα release in PMA-differentiated U937 cells (ELISA); type: cell-based, human
Protocol: Effects of macrolides on lipopolysaccharide (LPS)-induced TNFα release in PMA-differentiated U937 cells. […] LPS-induced TNFα release was evaluated by ELISA. Values represent means of three experiments±SEM. ^##p<0.01 (vs. non-treatment control), *p<0.05, **p<0.01 (vs. treatment with LPS only).
(§1) The human monocytic cell line U937 was obtained from the American Type Culture Collection (ATCC, Rockville, Md.). PBMCs from COPD patients were obtained from Brompton hospital and separated by AccuSPIN (Sigma-Aldrich). Cells were cultured in complete growth medium (RPMI 1640) (Sigma-Aldrich) supplemented with 10% fetal bovine serum (FBS) and 1% L-glutamine at 37° C. in a humidified atmosphere with 5% CO2. U937 cells were differentiated into adherent macrophage-like morphology by exposure to PMA (50 ng/mL) for 48 hrs in complete growth medium. Cell viability was assessed microscopically by trypan blue staining. Cell toxicity was determined by MTT assay as needed. This study was approved by the ethics committee of the Royal Brompton Hospitals, and all subjects gave written informed consent.
(§2) TNFα and IL-8 concentrations in the supernatant of cell cultures were determined by sandwich ELISA according to the manufacturer's instructions (R&D Systems Europe, Abingdon, UK).
(§3) The results were expressed as the mean±SEM. Comparisons of data in two groups were performed using the Student's t test or the Wilcoxon signed rank test. Multiple comparisons were made by one-way ANOVA with post hoc test (Dunnett's) as appropriate. The difference was considered significant at p<0.05. IC50 values (50% inhibitory concentration) for macrolides for production of cytokines or MMP9 were calculated using Prism 4.0 (GraphPad Software Inc., San Diego, Calif.).

IL-8 (CXCL8) release = test: LPS-induced IL-8 (CXCL8) release in PMA-differentiated U937 cells (ELISA); type: cell-based, human
Protocol: Effects of macrolides on lipopolysaccharide (LPS)-induced CXCL8 release in PMA-differentiated U937 cells. […] LPS-induced CXCL8 release was evaluated by ELISA. Values represent means of three experiments±SEM. ^##p<0.01 (vs. non-treatment control), *p<0.05, **p<0.01 (vs. treatment with LPS only).
as §1, §2, §3

P. aeruginosa PA12 = test: MIC by microdilution with PaβN or EGTA, clinical isolate overexpressing efflux pumps; type: cell-based; conditions: Pseudomonas aeruginosa
Protocol: (§4) MICs of 36 clinical and laboratory strains of PA with known efflux phenotype are measured by microdilution in cation-adjusted Muller-Hinton broth (CA-MHB) or in RPMI medium (commonly used in eukaryotic cell culture). Phe-Arg-β-naphthylamide (PaβN, 50 mg/L) and EGTA 5 mM are used to inhibit efflux pumps and alter OM integrity, respectively. P. aeruginosa strain ATCC PAO1 is used as reference. PA12 is a clinical strain overexpressing the 4 main efflux systems (MexAB, MexCD, MexEF, MexXY), PA403 is a laboratory strain deleted in the genes coding for the 4 efflux systems. A series of reference strains or of clinical isolates for which the expression of genes coding for efflux pumps is known is also used for MICs determinations. MICs are measured by microdilution in MH broth or in RPMI medium (used for eukaryotic cells culture) supplemented with 10% of fetal calf serum, or in MH broth supplemented by increasing amounts of serum. EGTA (5 mM) was used as a chelating agent (disrupting outer membrane integrity) and PaβN (50 mg/L) as an unspecific efflux inhibitor.

P. aeruginosa (PA) = test: MIC by microdilution, 36 clinical and laboratory strains with known efflux phenotype; type: cell-based
Protocol: as §4

CC[C@H]1OC(=O)[C@H](C)[C@@H](O[C@H]2C[C@@](C)(OC)[C@@H](O)[C@H](C)O2)[C@H](C)[C@@H](O[C@@H]2O[C@H](C)C[C@H](N(C)C)[C@H]2O)[C@](C)(O)C[C@@H](C)C(=O)[C@H](C)[C@@H](O)[C@]1(C)O [ERY, erythromycin]
4 µg/mL: MIC (P. aeruginosa (PA); strain 398, efflux CD−, RPMI) | MIC (P. aeruginosa (PA); strain 399, efflux AB − EF−, RPMI) | MIC (P. aeruginosa (PA); strain 400, efflux XY−, RPMI) | MIC (P. aeruginosa (PA); strain 401, ompH−, RPMI) | MIC (P. aeruginosa (PA); strain 403, efflux AB − CD − EF − XY−, RPMI) | MIC (P. aeruginosa (PA); strain 405, efflux AB − CD − EF − XY−, RPMI)
8 µg/mL: MIC (P. aeruginosa (PA); strain 1, efflux AB+, RPMI) | MIC (P. aeruginosa (PA); strain 3, efflux EF+, RPMI) | MIC (P. aeruginosa (PA); strain 401, ompH−, MHB) | MIC (P. aeruginosa (PA); strain 405, efflux AB − CD − EF − XY−, MHB)
did not inhibit: effect on TNFα production (TNFα release; 33 to 333 μM (FIG. 3)) | effect on IL-8 production (IL-8 (CXCL8) release; 33 to 333 μM (FIG. 4))
16 µg/mL: MIC (P. aeruginosa (PA); strain 11, efflux AB + CD+, RPMI) | MIC (P. aeruginosa (PA); strain 156, efflux EF + XY+, RPMI) | MIC (P. aeruginosa (PA); strain 392, efflux CD−, RPMI) | MIC (P. aeruginosa (PA); strain 396, ompH−, RPMI) | MIC (P. aeruginosa (PA); strain 397, efflux AB−, MHB) | MIC (P. aeruginosa (PA); strain 398, efflux CD−, MHB) | MIC (P. aeruginosa (PA); strain 399, efflux AB − EF−, MHB) | MIC (P. aeruginosa (PA); strain 400, efflux XY−, MHB) | MIC (P. aeruginosa (PA); strain 403, efflux AB − CD − EF − XY−, MHB)
64 µg/mL: MIC (P. aeruginosa (PA); strain 21, efflux AB+, RPMI) | MIC (P. aeruginosa (PA); strain 41, efflux CD+, RPMI) | MIC (P. aeruginosa (PA); strain 48, efflux CD + EF + XY+, RPMI) | MIC (P. aeruginosa (PA); strain 49, efflux CD + EF + XY+, RPMI) | MIC (P. aeruginosa (PA); strain 63, efflux AB + EF + XY+, RPMI) | MIC (P. aeruginosa (PA); strain 68, efflux AB + XY+, RPMI) | MIC (P. aeruginosa (PA); strain 133, efflux EF + XY+, RPMI) | MIC (P. aeruginosa (PA); strain 266B, efflux AB + CD+, RPMI) | MIC (P. aeruginosa (PA); strain 333A, efflux AB + EF+, RPMI) | MIC (P. aeruginosa (PA); strain 335, efflux AB + EF+, RPMI)
2 µg/mL: MIC (P. aeruginosa PA12; PA12, PA12, RPMI, EGTA 5 mM) | MIC (P. aeruginosa (PA); strain 397, efflux AB−, RPMI)
512 µg/mL: MIC (P. aeruginosa PA12; PA12, PA12, CA-MHB, EGTA 5 mM) | MIC (P. aeruginosa PA12; PA12, PA12, CA-MHB, control conditions (CT)) | MIC (P. aeruginosa (PA); strain 1, efflux AB+, MHB) | MIC (P. aeruginosa (PA); strain 2, efflux CD+, MHB) | MIC (P. aeruginosa (PA); strain 4, efflux XY+, MHB) | MIC (P. aeruginosa (PA); strain 12, efflux AB + CD + EF + XY+, MHB) | MIC (P. aeruginosa (PA); strain 16, efflux AB + XY+, MHB) | MIC (P. aeruginosa (PA); strain 21, efflux AB+, MHB) | MIC (P. aeruginosa (PA); strain 22, efflux XY+, MHB) | MIC (P. aeruginosa (PA); strain 41, efflux CD+, MHB) | MIC (P. aeruginosa (PA); strain 48, efflux CD + EF + XY+, MHB) | MIC (P. aeruginosa (PA); strain 49, efflux CD + EF + XY+, MHB) | MIC (P. aeruginosa (PA); strain 63, efflux AB + EF + XY+, MHB) | MIC (P. aeruginosa (PA); strain 68, efflux AB + XY+, MHB) | MIC (P. aeruginosa (PA); strain 133, efflux EF + XY+, MHB) | MIC (P. aeruginosa (PA); strain 156, efflux EF + XY+, MHB) | MIC (P. aeruginosa (PA); strain 168B, efflux CD + XY+, MHB) | MIC (P. aeruginosa (PA); strain 207, efflux AB + EF + XY+, MHB) | MIC (P. aeruginosa (PA); strain 266B, efflux AB + CD+, MHB) | MIC (P. aeruginosa (PA); strain 333A, efflux AB + EF+, MHB) | MIC (P. aeruginosa (PA); strain 335, efflux AB + EF+, MHB) | MIC (P. aeruginosa (PA); strain 394, efflux XY−, MHB) | MIC (P. aeruginosa (PA); strain 434, efflux AB + CD + XY+, MHB) | MIC (P. aeruginosa (PA); strain PAO1, REFERENCE, MHB)
> 333 µM: IC50 (TNFα release; Homo sapiens, U-937, U937 cells, at 333 μM, read-out: IC50, LPS-induced TNFα release: NE at 333 μM) | IC50 (IL-8 (CXCL8) release; Homo sapiens, U-937, U937 cells, at 333 μM, read-out: IC50, LPS-induced IL-8 release: NE at 333 μM)
32 µg/mL: MIC (P. aeruginosa PA12; PA12, PA12, CA-MHB, PaβN 50 mg/L) | MIC (P. aeruginosa PA12; PA12, PA12, RPMI, PaβN 50 mg/L) | MIC (P. aeruginosa PA12; PA12, PA12, RPMI, control conditions (CT)) | MIC (P. aeruginosa (PA); strain 4, efflux XY+, RPMI) | MIC (P. aeruginosa (PA); strain 12, efflux AB + CD + EF + XY+, RPMI) | MIC (P. aeruginosa (PA); strain 16, efflux AB + XY+, RPMI) | MIC (P. aeruginosa (PA); strain 22, efflux XY+, RPMI) | MIC (P. aeruginosa (PA); strain 40, efflux EF+, RPMI) | MIC (P. aeruginosa (PA); strain 391, efflux EF−, RPMI) | MIC (P. aeruginosa (PA); strain 394, efflux XY−, RPMI) | MIC (P. aeruginosa (PA); strain 395, efflux HI−, RPMI) | MIC (P. aeruginosa (PA); strain PAO1, REFERENCE, RPMI)
